The text below walks through data of patent US6987106B1, “1,4-diazabicyclo[3.2.2]nonane-4-carboxylates and carboxamide derivates, production and use thereof in therapeutics” (Sanofi-Aventis, priority 1999, dated 2006).

The structures appear in SMILES notation.

The melting point is the temperature, or range, at which the solid turns liquid. As to `Br.CN(C(=O)N1CCN2CCC1CC2)c1ccccc1`, the melting point lay in the range of 206 to 207 °C.
